From patent EP4722207A1, “OXOISOINDOLINYL-SUBSTITUTED TETRAHYDROPYRIMIDINEDIONE DERIVATIVE AND USE THEREOF” (Gluetacs Therapeutics (Shanghai) Co., Ltd., priority 2023, dated 2024)

Tests used:
[1] = biological target: T1, IKZF3 (Homo sapiens, UniProt Q96SW2+Q9UKT9); test: Western-blot assay, substrate protein degradation in hPBMCs: IKZF3; format: cell-based; conditions: 24 hours of compound treatment, 50 nM and 500 nM
T1 construct: effects of the compounds of the present disclosure on the expression of target proteins in cells; endogenous in cells; host or cells: human PBMCs (hPBMCs)

[2] = biological target: T2, WEE1 (Homo sapiens, UniProt P30291+Q96SW2); test: Western-blot assay, substrate protein degradation in hPBMCs: WEE1; format: cell-based; conditions: 24 hours of compound treatment, 50 nM and 500 nM
T2 construct: effects of the compounds of the present disclosure on the expression of target proteins in cells; endogenous in cells; host or cells: human PBMCs (hPBMCs)
T2 sequence (P30291 whole entry): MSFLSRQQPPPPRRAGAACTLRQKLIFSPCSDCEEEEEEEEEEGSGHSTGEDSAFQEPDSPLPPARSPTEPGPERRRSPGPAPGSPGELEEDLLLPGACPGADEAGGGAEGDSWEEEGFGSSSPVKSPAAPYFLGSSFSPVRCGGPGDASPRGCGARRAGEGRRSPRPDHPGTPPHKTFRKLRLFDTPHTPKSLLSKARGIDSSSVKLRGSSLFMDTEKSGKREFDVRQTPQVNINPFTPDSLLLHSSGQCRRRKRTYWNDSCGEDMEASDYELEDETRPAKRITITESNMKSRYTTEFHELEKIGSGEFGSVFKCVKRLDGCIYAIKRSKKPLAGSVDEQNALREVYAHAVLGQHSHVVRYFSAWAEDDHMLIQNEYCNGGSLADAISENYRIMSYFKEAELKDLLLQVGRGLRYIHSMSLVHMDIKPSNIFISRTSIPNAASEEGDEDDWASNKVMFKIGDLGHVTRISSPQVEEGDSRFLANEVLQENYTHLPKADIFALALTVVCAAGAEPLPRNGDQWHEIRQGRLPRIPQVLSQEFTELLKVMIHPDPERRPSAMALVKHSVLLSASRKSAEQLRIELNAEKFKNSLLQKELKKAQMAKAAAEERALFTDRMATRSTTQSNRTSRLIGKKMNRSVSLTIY
T2 sequence (Q96SW2 whole entry): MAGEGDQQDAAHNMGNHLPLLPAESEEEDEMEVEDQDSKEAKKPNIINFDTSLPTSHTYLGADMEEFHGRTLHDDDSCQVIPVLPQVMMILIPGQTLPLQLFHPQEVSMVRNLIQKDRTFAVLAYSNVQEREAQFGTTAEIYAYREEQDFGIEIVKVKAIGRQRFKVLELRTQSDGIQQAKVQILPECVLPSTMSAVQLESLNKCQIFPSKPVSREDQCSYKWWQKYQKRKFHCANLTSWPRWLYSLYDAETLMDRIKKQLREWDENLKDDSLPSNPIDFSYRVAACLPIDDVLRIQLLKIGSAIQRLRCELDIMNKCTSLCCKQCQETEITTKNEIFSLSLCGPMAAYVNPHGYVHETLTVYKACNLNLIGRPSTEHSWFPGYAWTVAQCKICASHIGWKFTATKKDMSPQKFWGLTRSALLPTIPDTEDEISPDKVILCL
T2 sequence (Q16531 whole entry partner): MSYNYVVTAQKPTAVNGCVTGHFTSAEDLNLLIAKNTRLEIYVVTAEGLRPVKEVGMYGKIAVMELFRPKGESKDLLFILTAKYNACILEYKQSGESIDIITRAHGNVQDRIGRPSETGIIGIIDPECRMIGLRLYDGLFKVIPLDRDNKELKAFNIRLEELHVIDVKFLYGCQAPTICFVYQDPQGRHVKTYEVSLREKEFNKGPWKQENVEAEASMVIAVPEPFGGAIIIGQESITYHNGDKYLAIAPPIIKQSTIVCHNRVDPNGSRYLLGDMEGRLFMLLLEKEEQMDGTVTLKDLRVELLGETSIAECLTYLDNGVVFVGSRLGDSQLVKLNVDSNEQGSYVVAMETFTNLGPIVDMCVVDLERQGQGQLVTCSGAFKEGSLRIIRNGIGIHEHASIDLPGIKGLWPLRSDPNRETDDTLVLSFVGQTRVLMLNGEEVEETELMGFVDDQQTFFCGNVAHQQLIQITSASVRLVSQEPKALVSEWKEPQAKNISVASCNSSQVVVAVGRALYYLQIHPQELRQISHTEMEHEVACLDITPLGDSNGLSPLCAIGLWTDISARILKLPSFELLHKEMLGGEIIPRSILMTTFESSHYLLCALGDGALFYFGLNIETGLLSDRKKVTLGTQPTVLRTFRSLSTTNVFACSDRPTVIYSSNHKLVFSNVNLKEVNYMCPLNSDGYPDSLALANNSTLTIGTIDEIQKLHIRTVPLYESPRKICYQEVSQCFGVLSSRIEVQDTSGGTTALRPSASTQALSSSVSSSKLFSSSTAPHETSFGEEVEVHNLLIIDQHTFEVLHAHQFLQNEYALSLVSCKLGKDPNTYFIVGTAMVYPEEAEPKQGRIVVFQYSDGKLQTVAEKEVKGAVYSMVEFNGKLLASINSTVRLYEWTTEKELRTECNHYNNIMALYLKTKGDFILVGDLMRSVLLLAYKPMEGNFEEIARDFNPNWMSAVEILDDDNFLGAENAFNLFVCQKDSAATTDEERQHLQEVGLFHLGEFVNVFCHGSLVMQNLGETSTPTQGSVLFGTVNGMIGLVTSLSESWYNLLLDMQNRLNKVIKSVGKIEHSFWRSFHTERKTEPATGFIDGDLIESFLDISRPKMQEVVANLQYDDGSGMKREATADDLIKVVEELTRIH

[3] = system: MV-4-11; test: Cell viability assay (CellTiter-Meiluncell Luminescent), tumor cell proliferation, MV-4-11; conditions: Homo sapiens, MV4-11, 96 h; for inhibition at 0.01 µM: read-out: Inhibition Rate at 10 nM (%); for inhibition at 0.5 µM: read-out: Inhibition Rate at 500 nM (%)
[4] = system: MDA-MB-231; test: Cell viability assay (CellTiter-Meiluncell Luminescent), tumor cell proliferation, MDA-MB-231; conditions: Homo sapiens, MDA-MB-231, 96 h; for inhibition at 0.01 µM: read-out: Inhibition Rate at 10 nM (%); for inhibition at 0.5 µM: read-out: Inhibition Rate at 500 nM (%)
[5] = biological target: T3, GSPT1 (Homo sapiens, UniProt P15170+Q96SW2); test: Western-blot assay, substrate protein degradation in hPBMCs: GSPT1; format: cell-based; conditions: 24 hours of compound treatment, 50 nM and 500 nM
T3 construct: effects of the compounds of the present disclosure on the expression of target proteins in cells; endogenous in cells; host or cells: human PBMCs (hPBMCs)
T3 sequence (P15170 whole entry): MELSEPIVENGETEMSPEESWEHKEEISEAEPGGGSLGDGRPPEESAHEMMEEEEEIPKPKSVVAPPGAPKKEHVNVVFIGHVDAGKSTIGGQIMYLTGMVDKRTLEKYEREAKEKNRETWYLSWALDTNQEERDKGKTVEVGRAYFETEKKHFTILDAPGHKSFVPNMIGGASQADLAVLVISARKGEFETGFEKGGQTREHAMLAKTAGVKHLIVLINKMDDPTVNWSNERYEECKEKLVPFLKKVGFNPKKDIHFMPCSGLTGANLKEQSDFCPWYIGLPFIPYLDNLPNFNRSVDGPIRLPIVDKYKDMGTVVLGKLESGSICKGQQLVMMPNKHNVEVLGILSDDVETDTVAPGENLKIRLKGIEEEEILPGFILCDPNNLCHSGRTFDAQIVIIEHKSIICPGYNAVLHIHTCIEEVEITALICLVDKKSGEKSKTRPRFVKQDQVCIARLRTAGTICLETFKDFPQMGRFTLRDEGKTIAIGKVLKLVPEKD
T3 sequence (Q96SW2 whole entry): as the sequence (Q96SW2 whole entry) above
T3 sequence (Q16531 whole entry partner): as the sequence (Q16531 whole entry partner) above

[6] = biological target: T4, IKZF2 (Homo sapiens, UniProt Q96SW2+Q9UKS7); test: Western-blot assay, substrate protein degradation in hPBMCs: IKZF2; format: cell-based; conditions: 24 hours of compound treatment, 50 nM and 500 nM
T4 construct: effects of the compounds of the present disclosure on the expression of target proteins in cells; endogenous in cells; host or cells: human PBMCs (hPBMCs)
T4 sequence (Q9UKS7 whole entry): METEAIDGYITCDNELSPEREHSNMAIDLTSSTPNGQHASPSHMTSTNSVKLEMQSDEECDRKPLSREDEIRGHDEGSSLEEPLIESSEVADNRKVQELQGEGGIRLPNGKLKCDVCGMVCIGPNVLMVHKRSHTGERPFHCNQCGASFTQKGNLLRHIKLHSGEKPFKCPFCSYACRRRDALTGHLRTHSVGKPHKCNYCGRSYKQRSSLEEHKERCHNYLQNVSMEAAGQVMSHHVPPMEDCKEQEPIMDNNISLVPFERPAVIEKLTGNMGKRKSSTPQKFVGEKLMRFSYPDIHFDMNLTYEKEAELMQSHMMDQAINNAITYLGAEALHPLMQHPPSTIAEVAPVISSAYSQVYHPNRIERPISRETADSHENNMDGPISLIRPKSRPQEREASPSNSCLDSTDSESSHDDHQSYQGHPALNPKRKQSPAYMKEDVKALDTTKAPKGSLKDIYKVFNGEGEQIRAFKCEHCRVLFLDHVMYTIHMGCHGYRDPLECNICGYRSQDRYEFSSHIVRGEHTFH
T4 sequence (Q96SW2 whole entry): as the sequence (Q96SW2 whole entry) above
T4 sequence (Q16531 whole entry partner): as the sequence (Q16531 whole entry partner) above

[7] = system: H2228; test: Cell viability assay (CellTiter-Meiluncell Luminescent), tumor cell proliferation, H2228; conditions: Homo sapiens, NCI-H2228, 96 h; for inhibition at 0.01 µM: read-out: Inhibition Rate at 10 nM (%); for inhibition at 0.5 µM: read-out: Inhibition Rate at 500 nM (%)
Protocol: The tumor cells used herein were cultured in a cell culture medium listed in table 2 at 37°C in an incubator with 5% CO2. Prior to experimentation, all cell lines used were correctly identified by STR profiling, and tested negative for mycoplasma contamination using a mycoplasma detection kit through routine screenings.
On the following day, the test compounds of the present disclosure were subjected to serial dilution. […] Subsequently, 0.5 µL of the test compound dilution was transferred into the 96-well plate containing the cells, with each well containing 100 µL of cell culture medium. […] Into the 96-well plate, the diluted test compounds and corresponding detection reagents were added, resulting in final test compound concentrations of 500 nM and 10 nM, respectively. The experimental procedure is described below using the diluted 2 µM test compound as an example.
After the cells were treated with the compounds of the present disclosure for a specified period, the cell viability assay reagent was added to the culture medium according to the kit's instructions to determine cell viability. […] All controls were treated using the same procedure as the compounds of the present disclosure. The growth inhibition curves for the compounds of the present disclosure were plotted using Prism GraphPad software, and the IC50 values were calculated therefrom.

[8] = biological target: T5, CK1α (Homo sapiens, UniProt P48729+Q96SW2); test: Western-blot assay, substrate protein degradation in hPBMCs: CK1α; format: cell-based; conditions: 24 hours of compound treatment, 50 nM and 500 nM
T5 construct: effects of the compounds of the present disclosure on the expression of target proteins in cells; endogenous in cells; host or cells: human PBMCs (hPBMCs)
T5 sequence (P48729 whole entry): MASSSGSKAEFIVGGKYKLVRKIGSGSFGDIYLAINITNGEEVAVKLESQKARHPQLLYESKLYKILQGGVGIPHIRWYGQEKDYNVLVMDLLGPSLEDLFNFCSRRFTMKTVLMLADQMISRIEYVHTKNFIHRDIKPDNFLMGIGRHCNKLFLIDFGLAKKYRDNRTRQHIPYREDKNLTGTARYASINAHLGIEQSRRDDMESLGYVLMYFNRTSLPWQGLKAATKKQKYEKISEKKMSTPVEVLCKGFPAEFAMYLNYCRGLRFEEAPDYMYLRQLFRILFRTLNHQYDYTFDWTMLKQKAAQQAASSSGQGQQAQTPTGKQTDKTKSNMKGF
T5 sequence (Q96SW2 whole entry): as the sequence (Q96SW2 whole entry) above
T5 sequence (Q16531 whole entry partner): as the sequence (Q16531 whole entry partner) above

[9] = biological target: T6, IKZF1 (Homo sapiens, UniProt Q13422+Q96SW2); test: Western-blot assay, substrate protein degradation in hPBMCs: IKZF1; format: cell-based; conditions: 24 hours of compound treatment, 50 nM and 500 nM
T6 construct: effects of the compounds of the present disclosure on the expression of target proteins in cells; endogenous in cells; host or cells: human PBMCs (hPBMCs)
T6 sequence (Q13422 whole entry): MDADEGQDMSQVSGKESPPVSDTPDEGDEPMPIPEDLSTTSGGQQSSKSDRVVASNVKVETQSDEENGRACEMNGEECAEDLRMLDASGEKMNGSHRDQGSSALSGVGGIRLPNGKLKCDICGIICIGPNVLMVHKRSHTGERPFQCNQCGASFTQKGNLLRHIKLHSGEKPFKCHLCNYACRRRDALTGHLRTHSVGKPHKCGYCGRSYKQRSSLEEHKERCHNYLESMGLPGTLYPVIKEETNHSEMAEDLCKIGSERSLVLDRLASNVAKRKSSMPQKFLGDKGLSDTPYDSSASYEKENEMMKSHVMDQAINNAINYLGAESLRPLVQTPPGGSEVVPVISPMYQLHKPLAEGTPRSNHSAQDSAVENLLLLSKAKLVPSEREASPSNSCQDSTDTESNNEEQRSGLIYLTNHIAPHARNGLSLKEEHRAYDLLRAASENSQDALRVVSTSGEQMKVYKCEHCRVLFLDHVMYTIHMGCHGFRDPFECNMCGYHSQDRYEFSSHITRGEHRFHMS
T6 sequence (Q96SW2 whole entry): as the sequence (Q96SW2 whole entry) above
T6 sequence (Q16531 whole entry partner): as the sequence (Q16531 whole entry partner) above

[10] = system: H292; test: Cell viability assay (CellTiter-Meiluncell Luminescent), tumor cell proliferation, H292; conditions: Homo sapiens, NCI-H292, 96 h; for inhibition at 0.01 µM: read-out: Inhibition Rate at 10 nM (%); for inhibition at 0.5 µM: read-out: Inhibition Rate at 500 nM (%)

| SMILES | substrate protein remaining % IKZF3 [1] | substrate protein remaining % WEE1 [2] | inhibition at 0.01 µM [3] [%] | inhibition at 0.5 µM [3] [%] | inhibition at 0.01 µM [4] [%] | inhibition at 0.5 µM [4] [%] | substrate protein remaining % GSPT1 [5] | substrate protein remaining % IKZF2 [6] | inhibition at 0.01 µM [7] [%] | inhibition at 0.5 µM [7] [%] | substrate protein remaining % CK1α [8] | substrate protein remaining % IKZF1 [9] | inhibition at 0.01 µM [10] [%] | inhibition at 0.5 µM [10] [%] |
| --- | --- | --- | --- | --- | --- | --- | --- | --- | --- | --- | --- | --- | --- | --- |
| O=C1CCN(N2Cc3cc(CN4CCC(c5ncnc6sc7c(c56)CCC7)CC4)ccc3C2=O)C(=O)N1 [GT-08113, 1-(5-((4-(6,7-dihydro-5H-cyclopenta[4,5]thieno[2,3-d]pyrimidin-4-yl)piperidin-1-yl)methyl)-1-oxoisoindolin-2-yl)dihydropyrimidine-2,4(1H,3H)-dione] | B (80%< substrate protein remaining %≤ 100%) | B (80%< substrate protein remaining %≤ 100%) | 30 to 40 | 10 to 18 | 25 to 40 | 40 to 60 | A (0% ≤ substrate protein remaining % ≤ 80%) | B (80%< substrate protein remaining %≤ 100%) | 20 to 25 | 25 to 30 | A (0% ≤ substrate protein remaining % ≤ 80%) | B (80%< substrate protein remaining %≤ 100%) | 20 to 40 | 20 to 40 |
| Cc1sc2ncnc(C3CCN(Cc4ccc5c(c4)CN(N4CCC(=O)NC4=O)C5=O)CC3)c2c1C [GT-08084, 1-(5-((4-(5,6-dimethylthieno[2,3-d]pyrimidin-4-yl)piperidin-1-yl)methyl)-1-oxoisoindolin-2-yl)dihydropyrimidine-2,4(1H,3H)-dione] | B (80%< substrate protein remaining %≤ 100%) | B (80%< substrate protein remaining %≤ 100%) | 18 to 25 | 10 to 18 | 5 to 10 | 18 to 25 | A (0% ≤ substrate protein remaining % ≤ 80%) | B (80%< substrate protein remaining %≤ 100%) | 10 to 15 | 25 to 30 | A (0% ≤ substrate protein remaining % ≤ 80%) | B (80%< substrate protein remaining %≤ 100%) | 1 to 5 | 10 to 15 |
| Cc1csc2ncnc(N3CCN(Cc4ccc5c(c4)C(=O)N(N4CCC(=O)NC4=O)C5=O)CC3)c12 [GT-08091, 2-(2,4-dioxotetrahydropyrimidin-1(2H)-yl)-5-((4-(5-methylthieno[2,3-d]pyrimidin-4-yl)piperazin-1-yl)methyl)isoindoline-1,3-dione] | B (80%< substrate protein remaining %≤ 100%) | A (0% ≤ substrate protein remaining % ≤ 80%) | – | – | 15 to 18 | 18 to 25 | A (0% ≤ substrate protein remaining % ≤ 80%) | B (80%< substrate protein remaining %≤ 100%) | 20 to 25 | 20 to 25 | A (0% ≤ substrate protein remaining % ≤ 80%) | B (80%< substrate protein remaining %≤ 100%) | 20 to 40 | 20 to 40 |
| Cc1cc2c(N3CCN(Cc4ccc5c(c4)CN(N4CCC(=O)NC4=O)C5=O)CC3)ncnc2s1 [GT-08059, 1-(5-((4-(6-methylthieno[2,3-d]pyrimidin-4-yl)piperazin-1-yl)methyl)-1-oxoisoindolin-2-yl)dihydropyrimidine-2,4(1H,3H)-dione] | A (0% ≤ substrate protein remaining % ≤ 80%) | B (80%< substrate protein remaining %≤ 100%) | – | – | 25 to 40 | 25 to 40 | B (80%< substrate protein remaining %≤ 100%) | B (80%< substrate protein remaining %≤ 100%) | 30 to 40 | 15 to 20 | B (80%< substrate protein remaining %≤ 100%) | B (80%< substrate protein remaining %≤ 100%) | 20 to 40 | 5 to 10 |
| Cc1nc(N2CCN(Cc3ccc4c(c3)C(=O)N(N3CCC(=O)NC3=O)C4=O)CC2)c2c(-c3ccccc3)csc2n1 [GT-08099, 2-(2,4-dioxotetrahydropyrimidin-1(2H)-yl)-5-((4-(2-methyl-5-phenylthieno[2,3-d]pyrimidin-4-yl)piperazin-1-yl)methyl)isoindoline-1,3-dione] | B (80%< substrate protein remaining %≤ 100%) | B (80%< substrate protein remaining %≤ 100%) | 25 to 30 | 5 to 10 | 18 to 25 | 25 to 40 | A (0% ≤ substrate protein remaining % ≤ 80%) | B (80%< substrate protein remaining %≤ 100%) | 25 to 30 | 30 to 40 | B (80%< substrate protein remaining %≤ 100%) | B (80%< substrate protein remaining %≤ 100%) | 20 to 40 | 20 to 40 |
| O=C1CCN(N2Cc3cc(CN4CCC(c5cccc(F)c5F)CC4)ccc3C2=O)C(=O)N1 [GT-08194, 1-(5-((4-(2,3-difluorophenyl)piperidin-1-yl)methyl)-1-oxoisoindolin-2-yl)dihydropyrimidine-2,4(1H,3H)-dione] | B (80%< substrate protein remaining %≤ 100%) | B (80%< substrate protein remaining %≤ 100%) | 18 to 25 | 60 to 80 | 18 to 25 | 25 to 40 | A (0% ≤ substrate protein remaining % ≤ 80%) | B (80%< substrate protein remaining %≤ 100%) | 20 to 25 | 20 to 25 | B (80%< substrate protein remaining %≤ 100%) | A (0% ≤ substrate protein remaining % ≤ 80%) | – | – |
| O=C1CCN(N2C(=O)c3ccc(CNC45CC6CC(CC(O)(C6)C4)C5)cc3C2=O)C(=O)N1 [GT-07786, 2-(2,4-dioxotetrahydropyrimidin-1(2H)-yl)-5-((((1r,3s,5R,7S)-3-hydroxyadamantan-1-yl)amino)methyl)isoindoline-1,3-dione] | B (80%< substrate protein remaining %≤ 100%) | B (80%< substrate protein remaining %≤ 100%) | – | – | 15 to 18 | 25 to 40 | A (0% ≤ substrate protein remaining % ≤ 80%) | B (80%< substrate protein remaining %≤ 100%) | 10 to 15 | 25 to 30 | B (80%< substrate protein remaining %≤ 100%) | B (80%< substrate protein remaining %≤ 100%) | 10 to 15 | 20 to 40 |
| O=C1CCN(N2Cc3cc(CN4CCN(c5ncnc6sccc56)CC4)ccc3C2=O)C(=O)N1 [GT-08057, 1-(1-oxo-5-((4-(thieno[2,3-d]pyrimidin-4-yl)piperazin-1-yl)methyl)isoindolin-2-yl)dihydropyrimidine-2,4(1H,3H)-dione] | B (80%< substrate protein remaining %≤ 100%) | B (80%< substrate protein remaining %≤ 100%) | – | – | 25 to 40 | 25 to 40 | A (0% ≤ substrate protein remaining % ≤ 80%) | B (80%< substrate protein remaining %≤ 100%) | 30 to 40 | 20 to 25 | B (80%< substrate protein remaining %≤ 100%) | A (0% ≤ substrate protein remaining % ≤ 80%) | 15 to 20 | 15 to 20 |
| CC(C)c1cc2c(N3CCN(Cc4ccc5c(c4)CN(N4CCC(=O)NC4=O)C5=O)CC3)ncnc2s1 [GT-08060, 1-(5-((4-(6-isopropylthieno[2,3-d]pyrimidin-4-yl)piperazin-1-yl)methyl)-1-oxoisoindolin-2-yl)dihydropyrimidine-2,4(1H,3H)-dione] | A (0% ≤ substrate protein remaining % ≤ 80%) | B (80%< substrate protein remaining %≤ 100%) | – | – | 25 to 40 | 25 to 40 | B (80%< substrate protein remaining %≤ 100%) | A (0% ≤ substrate protein remaining % ≤ 80%) | 20 to 25 | 30 to 40 | B (80%< substrate protein remaining %≤ 100%) | B (80%< substrate protein remaining %≤ 100%) | 20 to 40 | 20 to 40 |
